For this test, the system named is P388 leukemia ip, CD2F1 mice, survival T/C. Nature of the test: NCI In Vivo Anticancer Drug Screen. Data for tumor model P388 Leukemia (intraperitoneal) in CD2F1 (CDF1) mice. The following applies: endpoint: median survival time, higher = longer survival. The gist of the method: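 Mice carrying the transplanted tumor received test compound or vehicle. Survival was recorded in each group, and the value is the treated-group measurement divided by that of the vehicle-treated control group.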

The mark [1] stands for this setting: dose: 50.0 mg/kg/injection, schedule: Q01DX009 (ip), vehicle: saline.
[2] abbreviates: dose: 100.0 mg/kg/injection, schedule: Q01DX009 (ip), vehicle: saline.
[3] abbreviates: dose: 100.0 mg/kg/injection, schedule: Q04DX003 (ip), vehicle: Klucel (hydroxypropylcellulose) (HPC).
Setting [4] is: dose: 200.0 mg/kg/injection, schedule: Q01DX009 (ip), vehicle: saline.
Setting [5] is: dose: 200.0 mg/kg/injection, schedule: Q04DX003 (ip), vehicle: Klucel (hydroxypropylcellulose) (HPC).
The mark [6] stands for this setting: dose: 400.0 mg/kg/injection, schedule: Q04DX003 (ip), vehicle: Klucel (hydroxypropylcellulose) (HPC).
[7] abbreviates: dose: 25.0 mg/kg/injection, schedule: Q01DX009 (ip), vehicle: saline with Tween-80.
[8] abbreviates: dose: 100.0 mg/kg/injection, schedule: Q01DX009 (ip), vehicle: saline with Tween-80.
Where [9] appears, read: dose: 60.0 mg/kg/injection, schedule: Q01DX005 (ip), vehicle: saline with Tween-80.
The mark [10] stands for this setting: dose: 120.0 mg/kg/injection, schedule: Q01DX005 (ip), vehicle: saline with Tween-80.
[11] abbreviates: dose: 50.0 mg/kg/injection, schedule: Q01DX009 (ip), vehicle: saline with Tween-80.
[12] abbreviates: dose: 200.0 mg/kg/injection, schedule: Q01DX009 (ip), vehicle: saline with Tween-80.

The structures appear in SMILES notation. Values joined by “and” are separate entries in the source; they are usually repeats but may differ in a detail not shown here. Equal entries are not always repeated. Toxic doses and inconclusive results are not listed.

Turning to `O=C(O)c1cc(O)c(O)c(O)c1`, the T/C runs as follows: (dose: 14.0 mg/kg/injection, schedule: Q01DX009 (ip), vehicle: saline) 105 % of control; (dose: 22.0 mg/kg/injection, schedule: Q01DX009 (ip), vehicle: saline) 100 % of control; (dose: 35.0 mg/kg/injection, schedule: Q01DX009 (ip), vehicle: saline) 95 % of control; under setting [1], 103 % of control and 97 % of control; under setting [2], 100 % of control and 101 % of control; (dose: 100.0 mg/kg/injection, schedule: Q01DX009 (ip), vehicle: water) 95 % of control. Also, the T/C was 100 % of control under setting [3]; 118 % of control and 96 % of control under setting [4]; 95 % of control (dose: 200.0 mg/kg/injection, schedule: Q01DX009 (ip), vehicle: water); 100 % of control under setting [5]; 106 % of control and 111 % of control (dose: 400.0 mg/kg/injection, schedule: Q01DX009 (ip), vehicle: saline); 100 % of control (dose: 400.0 mg/kg/injection, schedule: Q01DX009 (ip), vehicle: water). Moreover, the T/C runs as follows: under setting [6], 95 % of control; (dose: 600.0 mg/kg/injection, schedule: Q01DX009 (ip), vehicle: saline) 110 % of control and 111 % of control.

As for `C=CC(=O)OCCCCCCCCCC`, the T/C runs as follows: under setting [3], 101 % of control; under setting [5], 109 % of control; under setting [6], 108 % of control.

Regarding `CCC(SC)C(=O)N(C)c1ccccc1` (stereo not given), the T/C (dose: 6.25 mg/kg/injection, schedule: Q01DX009 (ip), vehicle: saline) was 104 % of control; the T/C (dose: 12.5 mg/kg/injection, schedule: Q01DX009 (ip), vehicle: saline) was 107 % of control; the T/C under setting [7] is 90 % of control; the T/C (dose: 25.0 mg/kg/injection, schedule: Q01DX009 (ip), vehicle: saline) is 114 % of control; the T/C under setting [8] is 109 % of control.

`COC1C=CC(=O)C(C)(c2ccc(S(=O)(=O)c3ccccc3)cc2)O1` (stereo not given): the T/C reads like this: under setting [9], 104 % of control; under setting [10], 95 % of control; (dose: 240.0 mg/kg/injection, schedule: Q01DX005 (ip), vehicle: saline with Tween-80) 106 % of control.

As to `CCOC(=O)CCc1nc(C)ncc1C(=O)OCC`, the T/C (dose: 12.5 mg/kg/injection, schedule: Q01DX009 (ip), vehicle: saline with Tween-80) was 104 % of control; the T/C under setting [7] was 106 % of control; the T/C under setting [11] was 100 % of control; the T/C under setting [1] was 91 % of control; the T/C under setting [4] was 87 % of control.

As for `[N-]=[N+]=NCC1OC(n2cnc3c(N)ncnc32)CC1O` (stereo not given), the T/C by setting is: (dose: 60.0 mg/kg/injection, schedule: Q01DX005 (ip), vehicle: saline) 104 % of control; (dose: 120.0 mg/kg/injection, schedule: Q01DX005 (ip), vehicle: saline) 100 % of control; (dose: 240.0 mg/kg/injection, schedule: Q01DX005 (ip), vehicle: saline) 104 % of control.

`CN(C)c1ccc2c(Nc3ccc(NS(C)(=O)=O)cc3)c3ccc(N(C)C)cc3nc2c1`: the T/C runs as follows: (dose: 25.0 mg/kg/injection, schedule: Q01DX005 (ip), vehicle: Klucel (hydroxypropylcellulose) (HPC)) 161 % of control; (dose: 50.0 mg/kg/injection, schedule: Q01DX005 (ip), vehicle: Klucel (hydroxypropylcellulose) (HPC)) 153 % of control and 155 % of control; (dose: 100.0 mg/kg/injection, schedule: Q01DX005 (ip), vehicle: Klucel (hydroxypropylcellulose) (HPC)) 172 % of control and 212 % of control; (dose: 200.0 mg/kg/injection, schedule: Q01DX005 (ip), vehicle: Klucel (hydroxypropylcellulose) (HPC)) 173 % of control and 216 % of control.

Take `C/C=C1/CN2CCC34c5ccccc5N(C)C23C2CC1C4(C(=O)OC)C(O)O2` (stereo not given): the T/C is, setting by setting: (dose: 9.25 mg/kg/injection, schedule: Q01DX005 (ip), vehicle: saline + Tween-80 + alcohol) 114 % of control; (dose: 18.5 mg/kg/injection, schedule: Q01DX005 (ip), vehicle: saline + Tween-80 + alcohol) 93 % of control; (dose: 37.0 mg/kg/injection, schedule: Q01DX005 (ip), vehicle: saline + Tween-80 + alcohol) 100 % of control; (dose: 74.0 mg/kg/injection, schedule: Q01DX005 (ip), vehicle: saline + Tween-80 + alcohol) 100 % of control.

In the case of `CS(=O)(=O)OC1COCC1OS(C)(=O)=O` (stereo not given), the T/C was 95 % of control (dose: 100.0 mg/kg/injection, schedule: Q01DX001 (ip), vehicle: Klucel (hydroxypropylcellulose) (HPC)); 99 % of control under setting [3]; 95 % of control (dose: 200.0 mg/kg/injection, schedule: Q01DX001 (ip), vehicle: Klucel (hydroxypropylcellulose) (HPC)); 100 % of control under setting [5]; 100 % of control (dose: 400.0 mg/kg/injection, schedule: Q01DX001 (ip), vehicle: Klucel (hydroxypropylcellulose) (HPC)); 107 % of control under setting [6].

With `CNC(=O)n1cnc2ccccc21`, the T/C was 110 % of control and 111 % of control under setting [8]; 105 % of control and 118 % of control under setting [12]; 120 % of control and 124 % of control (dose: 400.0 mg/kg/injection, schedule: Q01DX009 (ip), vehicle: saline with Tween-80).

As to `c1ccc(C(NC2CC3CCC2C3)c2ccccc2)cc1` (stereo not given), the T/C by setting is: (dose: 37.5 mg/kg/injection, schedule: Q01DX009 (ip), vehicle: saline with Tween-80) 100 % of control; (dose: 75.0 mg/kg/injection, schedule: Q01DX009 (ip), vehicle: saline with Tween-80) 95 % of control.

Regarding `Cc1cc(C)c(N(CCO)CCO)cc1C`, the T/C was 99 % of control under setting [11], 108 % of control under setting [8] and 97 % of control under setting [12].

On to `N=c1c2ccccc2nc2n1CCCCC2`, for which the T/C is 103 % of control (dose: 25.0 mg/kg/injection, schedule: Q04DX003 (ip), vehicle: saline) and 95 % of control (dose: 50.0 mg/kg/injection, schedule: Q04DX003 (ip), vehicle: saline).

Consider `O=C(Nc1ccc(Br)cc1)ON1CCCCC1`, for which the T/C is 91 % of control under setting [1], 87 % of control under setting [2] and 104 % of control under setting [4].

Consider `N#CC1(NC(=O)C(Cl)Cl)c2ccccc2-c2ccccc21`, for which the T/C is, setting by setting: under setting [9], 100 % of control; under setting [10], 93 % of control.

Consider `CN(C)c1ccc(N=Nc2ccc3ccc4c(N=Nc5ccc(N(C)C)cc5)ccc5ccc2c3c54)cc1`, for which the T/C was 106 % of control (dose: 50.0 mg/kg/injection, schedule: Q01DX009 (ip), vehicle: Klucel (hydroxypropylcellulose) (HPC)); 103 % of control (dose: 100.0 mg/kg/injection, schedule: Q01DX009 (ip), vehicle: Klucel (hydroxypropylcellulose) (HPC)); 103 % of control (dose: 200.0 mg/kg/injection, schedule: Q01DX009 (ip), vehicle: Klucel (hydroxypropylcellulose) (HPC)).

The record behind these values is PubChem BioAssay AID330 (DTP/NCI, 2004).
